Assay results reported in publication PMC9856155, “Protein Conformational Dynamics Underlie Selective Recognition of Thermophilic over Mesophilic Enzyme I by a Substrate Analogue” (Biomolecules, 2023).
Read-outs that look alike come from different tables or passages of the source.

Molecular target: T1, Enzyme I C-terminal domain (tEIC) (Caldanaerobacter subterraneus, UniProt Q8R7R4)
T1 construct: gene PtsA; EIC, C-terminal domain (residues 261–575)
Assay: 1H-15N TROSY NMR chemical shift perturbation titration
Format: binding
Source text: 1H-15N TROSY NMR chemical shift perturbation titration on Enzyme I C-terminal domain (tEIC) | both cPEP and SEP induce significant CSPs on the spectra of tEIC localized in the vicinity of the PEP binding site | SEP is particularly interesting as it binds to the thermophilic enzyme with a KD similar to the physiological substrate

T1 sequence (Q8R7R4 250-573): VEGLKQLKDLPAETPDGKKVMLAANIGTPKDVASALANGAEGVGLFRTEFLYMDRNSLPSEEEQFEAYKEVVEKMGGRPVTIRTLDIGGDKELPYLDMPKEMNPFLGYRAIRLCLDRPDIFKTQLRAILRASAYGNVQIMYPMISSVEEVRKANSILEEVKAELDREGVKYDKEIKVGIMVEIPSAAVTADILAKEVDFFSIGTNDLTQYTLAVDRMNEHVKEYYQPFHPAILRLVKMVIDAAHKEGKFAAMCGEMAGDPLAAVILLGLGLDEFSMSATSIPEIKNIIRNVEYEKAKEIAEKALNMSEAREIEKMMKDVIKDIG

Row | Kd (read-out: Kd) [mM] | SMILES | Kd [mM]
1 | 0.6 | C=C(OS(=O)(=O)O)C(=O)O [SEP, sulfoenolpyruvate] | –
2 | – | C=C(CP(=O)(O)O)C(=O)O [cPEP, allylicphosphonate] | 2.8
